Reference: article PMC9645390, “Amphiphilic stilbene derivatives attenuate the neurotoxicity of soluble Aβ42 oligomers by controlling their interactions with cell membranes” (Chemical Science, 2022)

Columns and labels:
Aβ42 oligomers = target: T1, Aβ42 oligomers (Homo sapiens, UniProt P05067); test: Fluorescence saturation binding assay with Aβ42 oligomers; conditions: for Kd / binding ratio, Oligomers: Aβ42 oligomers; for Kd: 10 mM PBS pH 7.4, one site-specific binding model; for binding ratio, Oligomers: from cross point between plateau and initial slope; for binding preference oligomers vs fibrils (from Kd values): lower Kd for Aβ oligomers than Aβ fibrils
T1 construct: 1 mg of commercial Aβ42 monomer powder (from GL biochem) was dissolved in 1; purchased GL biochem
T1 sequence (P05067 672-713 limits assumed): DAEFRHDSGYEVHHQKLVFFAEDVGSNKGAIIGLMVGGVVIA
Method: (§1) Fig. 3 Binding constant measurements of ZY-5-OMe (left), ZY-5-MT (middle), ZY-5-DT (right) with Aβ42 fibrils (top), and oligomers (bottom). The measurements were performed in 10 mM phosphate buffered saline (PBS), pH 7.4. The Kd curves were fitted in GraphPad Prism with one site-specific binding model. Equation: Y = Bmax × X/(Kd + X). [Aβ42 fibrils] = [Aβ42 oligomers] = 5 μM.
(§2) Preparation of the Aβ42 Fibrils and Aβ42 Oligomers
(§3) Aβ42 fibrils: 1 mg of commercial Aβ42 monomer powder (from GL biochem) was dissolved in 1
(§4) mL 1,1,1,3,3,3-hexafluoro-2-propanol (HFIP) at room temperature and incubated for 1h. The
(§5) resulting solution was divided equally into two Eppendorf tubes. The solution in each Eppendorf
(§6) tube containing 0.5 mg Aβ42 monomer was then evaporated overnight and dried by vacuum
(§7) centrifuge to generate monomeric films. 100 μM Aβ42 fibrils solution was prepared by dissolving
(§8) the 0.5 mg monomeric films in 1.1 mL PBS buffer (with final DMSO concentration less than 1%)
(§9) and stiring at 37 °C for 3 days.
(§10) Aβ42 oligomers: The 0.5 mg monomeric films were dissolved in 1.1 mL PBS buffer (with final
(§11) DMSO concentration less than 1%) and incubated at 4 °C overnight. The resulting solution was
(§12) then centrifuged at 3000 rpm for 15 mins to remove the insoluble aggregates. The clear supernatant
(§13) was then used for the following experiments. […]
(§14) In Vitro Saturation Binding Studies with Aβ42 Fibrils and Aβ42 Oligomers
(§15) To a solution of increasing concentrations of compounds, a fixed concentration of the generated
(§16) aggregated Aβ42 fibrils or Aβ42 oligomers solutions (5 to 15 μM) was added to yield a total volume
(§17) of 100 μL. Nonspecific binding was determined without compounds. The mixture was incubated
(§18) for 15 min at room temperature. All fluorescence data were obtained on a SpectraMax M2e plate
(§19) reader (Molecular Devices).

Aβ42 fibrils = target: T2, Aβ42 fibrils (Homo sapiens, UniProt P05067); test: Fluorescence saturation binding assay with Aβ42 fibrils; conditions: Aβ42 fibrils; for Kd: 10 mM PBS pH 7.4, one site-specific binding model, read-out: Kd, Fibrils; for binding ratio, Fibrils: from cross point between plateau and initial slope
T2 construct: 1 mg of commercial Aβ42 monomer powder (from GL biochem) was dissolved in 1; purchased GL biochem
T2 sequence (P05067 672-713 limits assumed): as above
Method: as §1, §2, §3, §4, §5, §6, §7, §8, §9, §10, §11, §12, §13, §14, §15, §16, §17, §18, §19

[1] = Log D by octanol-PBS partition assay; format: physicochemical; conditions: pH 7.4, fluorescence readout
Method: In order to confirm that the compounds can also bind to native Aβ species, brain sections collected from 9-month-old 5xFAD transgenic mice have been employed in the fluorescence imaging studies. […] The brain sections were first incubated with our compounds, followed by Congo Red (CR), which is a well-established fluorescent probe that can bind to Aβ plaques.[34] The treated brain sections were then imaged using fluorescence microscope. […] Immunostaining with the CF594-conjugated HJ 3.4 antibody (CF594-HJ3.4) was also performed to confirm that these six compounds can bind to Aβ species specifically in the brain sections (Fig. 5). Moreover, the log D values of the compounds were also measured by octanol-PBS partition assays.[35] […]
The Log D value was measured following a published procedure using slight modifications.4 In general, compounds in 0.5 mL octanol was subjected to partition with 0.5 mL octanol-saturated
PBS. The whole mixture was stirred vigorously for 5 min, and centrifuged at 2,000 rpm for 5 min.
The top octanol layer was separated for later fluorescence measurement. The remaining PBS layer was partitioned with 0.5 mL PBS-saturated octanol, and the second top octanol layer was then separated after vigorous stirring and centrifuging at 2,000 rpm for another 5 min. The two octanol layers’ fluorescence spectra were recorded. The log D value was calculated by the fluorescence intensity ratio at the compounds’ emission wavelength for the above two octanol extractions. […]

[2] = target: T3, Aβ plaques in 5xFAD mice brain sections (Homo sapiens, UniProt P05067); test: Fluorescence imaging of 5xFAD mouse brain sections, colocalization with Congo Red; conditions: 9-month-old 5xFAD brain sections; compound 5 μM, Congo red 2.5 μM
T3 construct: aggregated Aβ species were commonly observed in brain sections from 5xFAD transgenic mice; tissue Jackson Laboratories; host or cells: brain sections of 9-month-old 5xFAD transgenic mice
T3 sequence (P05067 672-713 limits assumed): as above
Method: In order to confirm that the compounds can also bind to native Aβ species, brain sections collected from 9-month-old 5xFAD transgenic mice have been employed in the fluorescence imaging studies. […] The brain sections were first incubated with our compounds, followed by Congo Red (CR), which is a well-established fluorescent probe that can bind to Aβ plaques.[34] The treated brain sections were then imaged using fluorescence microscope. […] Immunostaining with the CF594-conjugated HJ 3.4 antibody (CF594-HJ3.4) was also performed to confirm that these six compounds can bind to Aβ species specifically in the brain sections (Fig. 5). Moreover, the log D values of the compounds were also measured by octanol-PBS partition assays.[35]
Fig. 4 Fluorescence microscopy images of 5xFAD mice brain sections co-incubated with amphiphilic compounds (top), Congo red (middle) and merged images (bottom, along with the Parson's correlation coefficients R). Concentrations: [amphiphilic compounds] = 5 μM, [Congo red] = 2.5 μM; scale bar: 125 μm. TEXT PRINTED IN THE PICTURE: ZY-5-MT: Merged R= 0.84 | ZY-12-DT: Merged R= 0.52 | ZY-12-OMe: Merged R= 0.77 | ZY-15-OMe: Merged R= 0.77 | ZY-17-DT: Merged R= 0.77 | ZY-17-OMe: Merged R= 0.72 […]
Histological Staining of 5×FAD Mice Brain Sections
5xFAD transgenic mice brain sections were blocked with bovine serum albumin (2% BSA in PBS, pH 7.4, 10 min). Then the mice brain sections were transferred to a PBS solution of the compound and incubated for 1 h. After which, the brain sections were transferred to a PBS solution of Congo Red or antibody HJ 3.4 (Professor David Holtzman, 1 μg/ml) and incubated for another 1 h. Then, the brain sections were treated with BSA again (5 min) followed by washing with PBS (3 × 2 min), DI water (3 × 2 min). Finally, the mice brain sections were mounted with non-fluorescent mounting media, and the images were obtained by using EVOS FL Auto 2. ImageJ Fiji program was used for colocalization analysis and determination of the Pearson’s correlation coefficient. The primary

Pearson's correlation coefficient R, colocalization with Congo Red [2]	Structure (SMILES)	Kd (Aβ42 oligomers) [nM]	binding ratio, Oligomers (Aβ42 oligomers)	Kd (Aβ42 fibrils) [nM]	binding ratio, Fibrils (Aβ42 fibrils)	logD [1]	binding preference oligomers vs fibrils (from Kd values) (Aβ42 oligomers)
–	COc1cc(/C=C/c2ccc(-c3ccc(N(C)C)cc3)s2)cc(CN2CCN(C)CCN(C)CC2)c1O [ZY-5-OMe]	1040	4.0	680	5.6	1.18 ± 0.046	–
0.77	COc1cc(OC)cc(-c2ccc(/C=C/c3cc(CN4CCN(C)CCN(C)CC4)c(O)c(CN4CCN(C)CCN(C)CC4)c3)cc2)c1 [ZY-17-DT]	1030	33.3	2250	1.1	0.606 ± 0.032	higher binding affinity to oligomers over fibrils
–	CN1CCN(C)CCN(Cc2cc(-c3ccc(/C=C/c4ccc(N(C)C)cc4)s3)ccc2O)CC1 [ZY-12-MT]	6270	1.0	4190	1.3	0.83 ± 0.035	–
–	CN1CCN(C)CCN(Cc2cc(/C=C/c3ccc(-c4ccc(C=O)cc4)s3)ccc2O)CC1 [ZY-15-MT]	2030	2.5	530	10.0	1.11 ± 0.021	–
0.72	COc1cc(OC)cc(-c2ccc(/C=C/c3cc(CN4CCN(C)CCN(C)CC4)c(O)c(OC)c3)cc2)c1 [ZY-17-OMe]	120	46.7	180	21.9	0.732 ± 0.019	higher binding affinity to oligomers over fibrils

Structure (SMILES)	Pearson's correlation coefficient R, colocalization with Congo Red [2]	Kd (Aβ42 oligomers) [nM]	binding ratio, Oligomers (Aβ42 oligomers)	Kd (Aβ42 fibrils) [nM]	binding ratio, Fibrils (Aβ42 fibrils)	logD [1]	binding preference oligomers vs fibrils (from Kd values) (Aβ42 oligomers)
COc1cc(/C=C/c2ccc(-c3ccc(C=O)cc3)s2)cc(CN2CCN(C)CCN(C)CC2)c1O [ZY-15-OMe]	0.77	470	8.1	1240	3.0	1.053 ± 0.002	higher binding affinity to oligomers over fibrils
